Measurements as given in US20230364032A1, “USE OF 2-HOBA TO TREAT ATHEROSCLEROSIS” (Vanderbilt University, priority 2020, published 2023).
Entries after “also recorded” stand apart in the source; their conditions may differ.

System: MDA-apoAI
Test: Plasma MDA-apoAI by immunoprecipitation and western blotting
Assay type: in vivo, mouse
Procedure: FIGS. 7A-7G show the effects of 2-HOBA on MDA-HDL adducts and HDL function. (7A) The levels or MDA adducts were measured by ELISA in HDL isolated from Ldlr mice treated as described in FIG. 1. Data are presented as mean±SEM (N=8 pet group), *** p<0.001, One-way ANOVA with Bonferroni's post hoc test. (7B) Western blots of apoAl and MDA-apoAl in HDL isolated from plasma by immunoprecipitation using primary anti-apoAl antibody. Ldlf mice were treated as described In FIG. 1 and apoAl and MDA-apoAl from Ldlr mice consuming a chow diet are included f0t comparison. (7C) Quantitation using lmageJ software of the mean density ratio (arbitrary units) of MDA-apoAl to apoAl detected by Western blotting (7B). […]
The study was approved by the Vanderbilt University Institutional Review Board (IRB), and all participants gave their written informed consent. […] After stopping the reaction, the O.D. was measured at 450 nm wavelength. MDA-ApoAI was detected in mouse plasma by immunoprecipitation of ApoAI and western blotting. […] Proteins were visualized and quantitated by Odyssey 3.0 Quantification software (LI-COR).

| SMILES | plasma levels of MDA-apoAI compared to Ldlr−/− mice consuming a chow diet (after 16 weeks on the western-type diet) | plasma MDA-apoAI adducts (Ldlr−/− mice consuming a western diet) |
| --- | --- | --- |
| NCc1ccc(O)cc1 [4-HOBA, 4-hydroxybenzylamine, reference compound] | markedly increased |  |
| NCc1ccccc1O [2-HOBA, 2-hydroxybenzylamine] |  | inhibited; also recorded: dramatically reduced |
